We go through 20 compounds from patent US7470679B2, “Constrained compounds as CGRP-receptor antagonists” (Bristol-Myers Squibb Company, priority 2006, dated 2008).

Bounds are passed on as bounds.

T1 sequence (Q16602 23-461): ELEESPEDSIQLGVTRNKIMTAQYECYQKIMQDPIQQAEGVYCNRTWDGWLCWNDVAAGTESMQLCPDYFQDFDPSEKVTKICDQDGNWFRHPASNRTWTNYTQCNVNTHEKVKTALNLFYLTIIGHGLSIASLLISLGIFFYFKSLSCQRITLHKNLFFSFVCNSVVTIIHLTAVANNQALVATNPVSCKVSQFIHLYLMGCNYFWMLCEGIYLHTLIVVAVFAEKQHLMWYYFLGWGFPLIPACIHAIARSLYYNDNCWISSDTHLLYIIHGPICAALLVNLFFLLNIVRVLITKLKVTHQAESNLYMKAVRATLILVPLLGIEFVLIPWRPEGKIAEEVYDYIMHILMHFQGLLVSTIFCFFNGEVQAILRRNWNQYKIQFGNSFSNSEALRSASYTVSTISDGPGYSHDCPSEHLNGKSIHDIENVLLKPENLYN
T1 sequence (O60894 27-148): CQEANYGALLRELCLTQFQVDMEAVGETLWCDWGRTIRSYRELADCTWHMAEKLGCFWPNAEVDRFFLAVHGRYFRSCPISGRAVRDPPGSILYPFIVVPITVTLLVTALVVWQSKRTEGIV

One assay concerns the target T1, CGRP receptor (Homo sapiens, UniProt O60894+Q16602). The experiment in a line: CGRP Binding Assay ([125I]-CGRP radioligand displacement, SK-N-MC homogenate). Further details: endogenous in cells; host or cells: SK-N-MC cells (membrane homogenate). The settings on record: Table 1, displacement of [125I]-CGRP. How it is done: CGRP Binding Assay. Tissue Culture. SK—N-MC cells were grown at 37° C. in 5% CO2 as a monolayer in medium consisting of MEM with Earle's salts and L-glutamine (Gibco) supplemented with 10% fetal bovine serum (Gibco). Cell Pellets. The cells were rinsed twice with phosphate-buffered saline (155 mM NaCl, 3.3 mM Na2HPO4, 1.1 mM KH2PO4, pH 7.4), and incubated for 5-10 min. at 4° C. in hypotonic lysis buffer consisting of 10 mM Tris (pH 7.4) and 5 mM EDTA. The cells were transferred from plates to polypropylene tubes (16×100 mm) and homogenized using a polytron. Homogenates were centrifuged at 32,000×g for 30 min. The pellets were resuspended in cold hypotonic lysis buffer with 0.1% mammalian protease inhibitor cocktail (Sigma) and assayed for protein concentration. The SK—N-MC homogenate was then aliquoted and stored at −80° C. until needed.
Radioligand Binding Assay. The compounds of invention were solubilized and carried through serial dilutions using 100% DMSO. Aliquots from the compound serial dilutions were further diluted 25 fold into assay buffer (50 mM Tris-Cl pH 7.5, 5 mM MgCl2, 0.005% Triton X-100) and transferred (volume 50 μl) into 96 well assay plates. [^125I]-CGRP (Amersham Biosciences) was diluted to 60 pM in assay buffer and a volume of 50 μl was added to each well. SK—N-MC pellets were thawed, diluted in assay buffer with fresh 0.1% mammalian protease inhibitor cocktail (Sigma), and homogenized again. SK—N-MC homogenate (5 μg/well) was added in a volume of 100 μl. The assay plates were then incubated at room temperature for 2 h. Assays were stopped by addition of excess cold wash buffer (20 mM Tris-Cl pH 7.5, 0.1% BSA) immediately followed by filtration over glass fiber filters (Whatman GF/B) previously soaked in 0.5% PEI. Non-specific binding was defined with 1 μM beta-CGRP. Protein bound radioactivity was determined using a gamma or scintillation counter. The IC50 was defined as the concentration of a compound of invention required to displace 50% of radioligand binding.
As to `O=C(C[C@@H]1Cc2cc(Br)c3[nH]nc(Br)c3c2CN(CC(F)(F)F)C1=O)N1CCC(c2cc3ccccc3[nH]c2=O)CC1`, the IC50 (usually the midpoint of a concentration-inhibition curve) fell in the range of 0.0001 to 0.01 µM. Same read-out and setting: the result for `O=C(C[C@@H]1Cc2cc(Br)c3[nH]nc(Br)c3c2CN(CC(F)(F)F)C1=O)N1CCC(c2cc3cccc(F)c3[nH]c2=O)CC1` reads 0.0001 to 0.01 µM; that for `O=C1OCc2c(cc(Br)c3[nH]ncc23)C[C@H]1CC(=O)N1CCC(c2cc3ccccc3[nH]c2=O)CC1`, 0.0001 to 0.01 µM.

Staying with this assay, now noted: Table 2, displacement of [125I]-CGRP.
Regarding `O=C(N[C@@H]1Cc2ccc3[nH]ncc3c2CN(CCN2CCOCC2)C1=O)N1CCC(N2Cc3ccccc3NC2=O)CC1`, the IC50 was in the range of 0.01 to 0.1 µM. On the same count and under the same terms, in the case of `O=C1NCCC2(CCN(C(=O)N[C@@H]3Cc4ccc5[nH]ncc5c4CN(Cc4ccc(C(F)(F)F)cc4)C3=O)CC2)N1` it was 0.1 to 1 µM; in that of `CC(C)(C)CN1Cc2c(ccc3[nH]ncc23)C[C@@H](CC(=O)N2CCC(N3Cc4ccccc4NC3=O)CC2)C1=O`, 0.01 to 0.1 µM. On the same count and under the same terms, the result for `O=C(NC1Cc2ccc3[nH]ncc3c2CN(CCc2ccncc2)C1=O)N1CCC(N2Cc3ccccc3NC2=O)CC1` (centres unmarked) reads 0.0001 to 0.01 µM; that for `O=C1Nc2ccccc2C2(CCN(C(=O)NC3Cc4ccc5[nH]ncc5c4CN(CCc4ccncc4)C3=O)CC2)N1` (centres unmarked), 0.1 to 1 µM. Same read-out and setting: the result for `O=C(C[C@@H]1Cc2cc(Cl)c3[nH]ncc3c2CN(Cc2cccnc2)C1=O)N1CCC(c2cc(-c3ccccc3)[nH]n2)CC1` reads 0.01 to 0.1 µM. In turn, `CC(C)(C)CN1Cc2c(ccc3[nH]ncc23)C[C@@H](CC(=O)N2CCC(n3cc(-c4ccccc4)[nH]c3=O)CC2)C1=O` had an IC50 of 0.01 to 0.1 µM. With `O=C1Nc2ccccc2CC1C1CCN(C(=O)C[C@@H]2Cc3ccc4[nH]ncc4c3CN(Cc3ccccc3)C2=O)CC1` (some centres unmarked), the IC50 lay within 0.1 to 1 µM. On the same count and under the same terms, the result for `O=C1Nc2ccccc2CC1N1CCN(C(=O)C[C@@H]2Cc3ccc4[nH]ncc4c3CN(Cc3ccccc3)C2=O)CC1` (some centres unmarked) reads 0.1 to 1 µM.

With `CC(C)(C)CN1Cc2c(ccc3[nH]ncc23)C[C@@H](NC(=O)N2CCC3(CC2)CNC(=O)c2ccccc23)C1=O`, the IC50 is over 1 µM. Same read-out and setting: the result for `CC(C)(C)CN1Cc2c(ccc3[nH]ncc23)C[C@@H](CC(=O)N2CCC(N3Cc4ccccc4CC3=O)CC2)C1=O` reads 0.1 to 1 µM; that for `CC(C)(C)CN1Cc2c(cc(Cl)c3[nH]ncc23)C[C@@H](CC(=O)N2CCC(N3C(=O)CN(c4ccccc4)C3=O)CC2)C1=O`, 0.01 to 0.1 µM. On the same count and under the same terms, in the case of `CC(C)(C)CN1Cc2c(cc(Cl)c3[nH]ncc23)C[C@@H](CC(=O)N2CCC(c3cc4ccccc4c[n+]3[O-])CC2)C1=O` it was 0.01 to 0.1 µM. On the same count and under the same terms, the result for `CC(C)(C)CN1Cc2c(cc(Cl)c3[nH]ncc23)C[C@@H](CC(=O)Nc2ccc3c(c2)CCC2(C3)NC(=O)NC2=O)C1=O` (some centres unmarked) reads 0.0001 to 0.01 µM; that for `CC(C)(C)CN1Cc2c(cc(Cl)c3[nH]ncc23)C[C@@H](CC(=O)Nc2ccc3c(c2)CC2(C3)NC(=O)NC2=O)C1=O` (some centres unmarked), 0.01 to 0.1 µM; that for `O=C(C[C@@H]1Cc2cc(Br)c3[nH]ncc3c2CN(CC2CC2)C1=O)N1CCC(c2cc3ccccc3[nH]c2=O)CC1`, 0.0001 to 0.01 µM.

In the case of `COCCN1Cc2c(cc(Br)c3[nH]ncc23)C[C@@H](CC(=O)N2CCC(c3cc4cccc(F)c4[nH]c3=O)CC2)C1=O`, the IC50 is 0.01 to 0.1 µM.

A further assay deals with T1, CGRP receptor. Description: Cyclic AMP Functional Antagonism Assay. The settings on record: Table 2; SK-N-MC cells, 0.3 nM CGRP, 30 min; read-out: cAMP Function IC50. The class given is cell-based. Further details: cells that endogenously express the human CGRP receptor; endogenous in cells; host or cells: SK-N-MC cells. How it is done: Cyclic AMP Functional Antagonism Assay. Antagonism of the compounds of invention was determined by measuring the formation of cyclic AMP (adenosine 3′5′-cyclic monophosphate) in SK—N-MC cells that endogenously express the human CGRP receptor. CGRP receptor complex is coupled with Gs protein and CGRP binding to this complex leads to the cyclic AMP production via Gs-dependent activation of an adenylate cyclase (Juaneda C et al., TiPS, 2000; 21:432-438; incorporated by reference herein). Consequently, CGRP receptor antagonists inhibit CGRP-induced cyclic AMP formation in SK—N-MC cells (Doods H et al., Br J Pharmacol, 2000; 129(3):420-423); incorporated by reference herein). For cyclic AMP measurements SK—N-MC cells were incubated with 0.3 nM CGRP alone or in the presence of various concentrations of the compounds of invention for 30 min at room temperature. Compounds of invention were pre-incubated with SK—N-MC cells for 15 min before the addition of CGRP to allow receptor occupancy (Edvinsson et al., Eur J Pharmacol, 2001, 415:39-44; incorporated by reference herein). Cyclic AMP was extracted using the lysis reagent and its concentration was determined by radioimmunoassay using RPA559 cAMP SPA Direct Screening Assay Kit (Amersham Pharmacia Biotech). IC50 values were calculated using Excel fit.
As for `CC(C)(C)CN1Cc2c(ccc3[nH]ncc23)C[C@@H](CC(=O)N2CCC(N3Cc4ccccc4NC3=O)CC2)C1=O`, the concentration for half-maximal inhibition (IC50) was 0.0001 to 0.01 µM. Turning to `O=C(NC1Cc2ccc3[nH]ncc3c2CN(CCc2ccncc2)C1=O)N1CCC(N2Cc3ccccc3NC2=O)CC1` (centres unmarked), the IC50 is 0.0001 to 0.01 µM. Consider `CC(C)(C)CN1Cc2c(ccc3[nH]ncc23)C[C@@H](CC(=O)N2CCC(n3cc(-c4ccccc4)[nH]c3=O)CC2)C1=O`, for which the IC50 was in the range of 0.01 to 0.1 µM.
